Measured values reported in patent US20230255904A1, “PHARMACEUTICAL COMPOSITION FOR PREVENTING OR TREATING CANCER COMPRISING NAPHTHOQUINONE-BASED COMPOUND AND IMMUNE CHECKPOINT INHIBITOR AS ACTIVE INGREDIENTS” (NADIANBIO LTD., priority 2020, published 2023).

Experiments:
[1] = test system: 4T1; experiment: Tumor growth inhibition, animal model for breast cancer I (4T1); format: in vivo, BALB/c mice
Procedure: (§1) All mice used in the experiments were raised in a sterile animal room with constant temperature (22° C. to 26° C.) and constant humidity (55% to 60%), acclimatized for 1 week while sufficiently supplying typical solid feed (Samtako Inc., Korea) and water, and then used. All experiments were conducted after obtaining approval from the Institutional Animal Care and Use Committee in accordance with the laboratory animal care and ethics regulations of the Institutional Animal Care and Use Committee of Wonkwang University.
(§2) 7-week-old BALB/c or C57BL/6 mice were used, and subcutaneously inoculated using a 1-mL insulin syringe within 30 minutes after mixing the mouse cancer cells with 0.2 mL of PBS.
(§3) After the cancer cell line was subcutaneously implanted, the administration of drugs was started when the size of the cancer reached 50 to 100 mm^3. The volumes (mm^3) of the tumors, which were generated after the inoculation, were measured at intervals of 3 days using a caliper, calculation was performed using the formula of […], and then the results thereof were compared.
(§4) In addition, sole administration or co-administration of respective drugs was performed according to the administration schedules listed in Tables 4 to 34 below, the tumor volumes were then measured according to the tumor proliferation assessment method described in Example 1.1, the tumor growth inhibition rates (TGI (O)=(Vc−Vt)/Vc×100(%); Vc: tumor volume of control, Vt tumor volume of experimental group) were calculated based the tumor volumes, and the results thereof are shown in the respective tables and FIGS. 1 to 31.

[2] = test system: B16F10; experiment: Tumor growth inhibition, animal model for skin cancer (B16F10); format: in vivo,  mice
Procedure: as §1, §2, §3, §4

[3] = test system: RENCA; experiment: Tumor growth inhibition, animal model for renal cancer (RENCA); format: in vivo, BALB/c mice
Procedure: as §1, §2, §3, §4

[4] = test system: spontaneous non-small cell lung cancer (Kras^LSL-G12D/+; Trp53^flox/flox mice); experiment: Tumor proliferation in genetically engineered mouse models for spontaneous non-small cell lung cancer (Micro-CT); format: in vivo; conditions: compared to before the drug administration, Micro-CT imaging; dunnione 40 mg/kg, carboplatin 25 mg/kg, paclitaxel 10 mg/kg, anti-PD-1 antibody 200 μg/head
From the text: Models for spontaneous non-small cell lung cancer were induced by constructing conditional mutant mice (Kras^LSL-G12D/+; Trp53^flox/flox mice) having Ras activation and p53 variation through crossbreeding of conditional K-Ras activation variation-genetically engineered mice and conditional p53 variation-genetically engineered mice, and then performing intratracheal instillation of adenoviruses (Ad5-CMV-Cre; 2.5×10^7 PFU/infectious units), into which Cre genes were introduced, into the lung. […]
After sole administration or co-administration of respective drugs was performed according to the administration schedule listed in Table 38 below and FIG. 35, the tumor growth rate for each group compared to before the drug administration was measured at the 6th week through Micro-CT imaging, and the results thereof were summarized in Table 39.

Q: `CC1OC2=C(C(=O)C(=O)c3ccccc32)C1(C)C` (centres unmarked) [Dunnione, 2,3,3-trimethyl-2H-benzo[g][1]benzofuran-4,5-dione] was tested. Which “TGI (%)” value ([1]; Experimental Example 10, Dunnione 40 mg/kg oral every day from 5th day, Anti-CTLA4 antibody 200 μg/head i.p. at intervals of 3 days from 5th day, 4 times, Mitoxantrone 6 mg/kg i.p. once on 5th day) did it give?
A: The value was 8.9%.

Q: What about the “TGI (%)” value ([1]; Experimental Example 12, Dunnione 40 mg/kg oral every day from 7th day, Adriamycin 3.08 mg/kg + Cyclophosphamide 30.8 mg/kg + Paclitaxel 4.12 mg/kg i.p. at intervals of 1 week from 7th day, 3 times) of the same molecule?
A: The value was 23.6%.

Q: What about the “TGI (%)” value ([1]; Experimental Example 13, Dunnione 40 mg/kg oral every day from 7th day, Docetaxel 4.06 mg/kg + Adriamycin 2.7 mg/kg + Cyclophosphamide 27 mg/kg i.p. at intervals of 1 week from 7th day, 4 times) of the same molecule?
A: The value was 16.1%.

Q: What about the “TGI (%)” value ([2]; Experimental Example 21, Dunnione 40 mg/kg oral every day from 6th day, Anti-PD-L1 antibody 200 μg/head i.p. 2 times a week from 6th day, 3 times) of the same molecule?
A: Its value is 24.1%.

Q: And the “TGI (%)” value ([2]; Experimental Example 22, Dunnione 40 mg/kg oral every day from 6th day, Anti-PD-L1 antibody 200 μg/head i.p. 2 times a week from 6th day, 3 times, Paclitaxel 14 mg/kg i.p. at intervals of 1 week from 6th day, 2 times)?
A: Its value is 24.1%.

Q: And the “TGI (%)” value ([2]; Experimental Example 23, Dunnione 40 mg/kg oral every day from 6th day, Anti-CTLA4 antibody 200 μg/head i.p. 2 times a week from 6th day, 4 times, Paclitaxel 14 mg/kg i.p. once on 6th day)?
A: Its value is 16.7%.

Q: And the “TGI (%)” value ([2]; Experimental Example 24, Dunnione 40 mg/kg oral every day from 7th day, Anti-CTLA4 antibody 100 μg/head i.p. 2 times a week from 7th day, 2 times, Regorafenib 3 mg/kg oral every day from 7th day)?
A: Its value is 9.2%.

Q: And the “TGI (%)” value ([2]; Experimental Example 25, Dunnione 40 mg/kg oral every day from 8th day, Anti-PD-1 antibody 100 μg/head i.p. 2 times a week from 8th day, 3 times, Vistusertib 15 mg/kg oral every day from 8th day)?
A: The value was 34.6%.

Q: And the “TGI (%)” value ([2]; Experimental Example 26, Dunnione 40 mg/kg oral every day from 8th day, Everolimus 0.5 mg/kg oral every day from 8th day)?
A: The value was 31.5%.

Q: What about the “TGI (%)” value ([2]; Experimental Example 27, Dunnione 40 mg/kg oral every day from 8th day, Anti-PD-1 antibody 100 μg/head i.p. 2 times a week from 8th day, 3 times, Everolimus 0.5 mg/kg oral every day from 8th day) of the same molecule?
A: The value was 34.6%.

Q: And the “TGI (%)” value ([3]; Experimental Example 15, Dunnione 40 mg/kg oral every day from 7th day, Anti-CTLA4 antibody 200 μg/head i.p. at intervals of 3 days from 7th day, 7 times, Everolimus 250 μg/kg oral every day from 7th day)?
A: The value was 7.8%.

Q: And the “TGI (%)” value ([3]; Experimental Example 16, Dunnione 40 mg/kg oral every day from 7th day, Sorafenib 10 mg/kg oral every day from 7th day)?
A: The value was 14.5%.

Q: And the “TGI (%)” value ([3]; Experimental Example 17, Dunnione 40 mg/kg oral every day from 7th day, Anti-CTLA4 antibody 200 μg/head i.p. at intervals of 3 days from 7th day, 3 times, Sorafenib 10 mg/kg oral every day from 7th day)?
A: Its value is 14.5%.

Q: And the “TGI (%)” value ([3]; Experimental Example 18, Dunnione 40 mg/kg oral every day from 7th day, Anti-PD-1 antibody 100 μg/head i.p. 2 times a week from 7th day, 5 times, Everolimus 0.1 mg/kg oral every day from 7th day)?
A: The value was 5.2%.

Q: What about the “TGI (%)” value ([3]; Experimental Example 19, Dunnione 40 mg/kg oral every day from 7th day, Anti-CTLA4 antibody 200 μg/head i.p. 2 times a week from 7th day, 5 times, Sorafenib 10 mg/kg oral every day from 7th day) of the same molecule?
A: The value was 44.6%.

Q: What about the “TGI (%)” value ([3]; Experimental Example 20, Dunnione 40 mg/kg oral every day from 10th day, Anti-CTLA4 antibody 200 μg/head i.p. 2 times a week from 10th day, 5 times, Vistusertib 10 mg/kg oral every day from 10th day) of the same molecule?
A: Its value is 33.2%.

Q: What about the “Tumor growth rate (fold) at 6th week” value [4] of the same molecule?
A: The value was 34.6 ± 54 fold.
